Measured values from patent US20250313563A1, “GLYCOGEN SYNTHASE KINASE 3 INHIBITORS AND USES THEREOF” (The Broad Institute, Inc., priority 2022, published 2025).
Read-outs that look alike come from different tables or passages of the source.

Assays:
[1] = target: GSK3b (GST-full length GSK3b) (Homo sapiens (Human), UniProt P49841); experiment: GSK3b TR-FRET kinase assay; type: biochemical
Summary of the method: (§1)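 1 nM GST-GSK3α/β + cpd, 30 min preinc; add 200 nM biotin-pS645 GS(631-650) peptide + ATP (α 4 μM / β 2 μM, or 1 mM); 100 min RT, 50 mM Tris pH 7.5, 20 mM MgCl2, 1% DMSO; EDTA stop; SA-d2/Tb-pSer641 Ab 60 min; 665/615 ratio → IC50.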

[2] = tested on: MDR1-MDCK cell monolayers; experiment: MDR1/MDCK assay (blood-brain barrier penetration potential); type: in vitro ADME; details: 5 μM, pH 7.4, 120 minutes; for MDCK permeability (MDR1-MDCK); Mean; Papp (A − B): A to B; for MDCK permeability (MDR1-MDCK); Mean; Papp (B − A): B to A
Protocol: The MDR1/MDCK assay is run at Absorption Systems. This assay is used to determine the blood-brain barrier (BBB) penetration potential of a test compound using MDR1-MDCK cell monolayers. Catalog number EA203.
• Test compound at 5 μM in HBSSg with maximum DMSO concentration not greater than 1%.
• Confluent monolayers of MDR1-MDCK cells, 7 to 11 days old.
• Receiver well with 1% BSA in modified Hanks buffer (HBSSg) • Apical and basolateral side at pH 7.4 • Dose two monolayers in each direction (N=2) • Dose apical side for (A to B) assessment • Dose basolateral side for (B to A) assessment • Sample both apical and basolateral sides at 120 minutes • Determine the concentrations of test compound using a generic LC-MS/MS method with a minimum 4 point calibration curve.
• The quality of the cell monolayer batch is verified using control compounds before monolayers are released for use • The quality of each monolayer used in the assay is verified by a TEER measurement and by calculating the Papp for a control compound.

[3] = target: GSK3α (GST-full length GSK3α) (Homo sapiens (Human), UniProt P49840); experiment: GSK3α TR-FRET kinase assay; type: biochemical
Summary of the method: as §1

[4] = read-out: GSK3-B (TR-FRET 1 mM ATP), GMean, IC50, 1 mM ATP, geometric mean
[5] = read-out: GSK3-A (TR-FRET 1 mM ATP), GMean, IC50, 1 mM ATP, geometric mean
[6] = 1 nM GSK3b, 2 μM ATP, 30 minute preincubation, Table 16, read-out: GSK3-B TR-FRET BIOCHEMICAL (TR-FRET)
[7] = 1 nM GSK3α, 4 μM ATP, 30 minute preincubation, Table 16, read-out: GSK3-A TR-FRET BIOCHEMICAL (TR-FRET)
[8] = 1 nM GSK3b, 2 μM ATP, 30 minute preincubation, Table 16, read-out: GSK3-B TR-FRET BIOCHEMICAL (TR-FRET), IC50
[9] = 1 nM GSK3α, 4 μM ATP, 30 minute preincubation, Table 16, read-out: GSK3-A TR-FRET BIOCHEMICAL (TR-FRET), IC50

GSK3α (GST-full length GSK3α), sequence (P49840 whole entry): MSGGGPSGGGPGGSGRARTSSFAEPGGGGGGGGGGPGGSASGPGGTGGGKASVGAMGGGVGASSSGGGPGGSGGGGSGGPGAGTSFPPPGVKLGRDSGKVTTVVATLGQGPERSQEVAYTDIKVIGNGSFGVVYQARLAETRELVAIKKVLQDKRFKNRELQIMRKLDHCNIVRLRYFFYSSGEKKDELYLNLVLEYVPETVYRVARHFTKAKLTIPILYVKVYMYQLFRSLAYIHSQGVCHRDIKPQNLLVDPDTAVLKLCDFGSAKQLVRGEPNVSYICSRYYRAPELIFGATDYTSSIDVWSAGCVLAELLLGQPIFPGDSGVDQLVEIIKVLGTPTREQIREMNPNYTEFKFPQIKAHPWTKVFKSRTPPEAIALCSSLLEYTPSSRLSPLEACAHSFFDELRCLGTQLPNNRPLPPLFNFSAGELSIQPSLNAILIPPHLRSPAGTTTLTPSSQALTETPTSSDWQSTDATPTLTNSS
GSK3b (GST-full length GSK3b), sequence (P49841 whole entry): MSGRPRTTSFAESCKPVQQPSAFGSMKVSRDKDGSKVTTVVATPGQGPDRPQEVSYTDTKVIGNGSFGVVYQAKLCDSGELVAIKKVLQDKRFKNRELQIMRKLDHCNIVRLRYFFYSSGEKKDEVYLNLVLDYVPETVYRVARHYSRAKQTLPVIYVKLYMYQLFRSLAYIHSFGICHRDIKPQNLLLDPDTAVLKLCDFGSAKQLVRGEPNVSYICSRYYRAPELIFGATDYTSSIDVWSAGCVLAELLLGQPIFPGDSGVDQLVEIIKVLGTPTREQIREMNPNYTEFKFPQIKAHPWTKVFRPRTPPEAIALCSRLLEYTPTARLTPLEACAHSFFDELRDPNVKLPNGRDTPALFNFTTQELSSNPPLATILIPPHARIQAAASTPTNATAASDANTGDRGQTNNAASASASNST

SMILES	IC50 [1, 4] [nM]	IC50 [3, 5] [nM]	IC50 [1, 6] [nM]	IC50 [3, 7] [nM]	also measured
CN(C)S(=O)(=O)c1cccc(C2(C)C3=C(CC(C)(C)CC3=O)Nc3n[nH]c(CC(C)(C)C)c32)c1 (stereo not shown) [Compound 126012]	100 to 1000	1000 to 5000	–	–	MDCK permeability (MDR1-MDCK); Mean; Papp Ratio (B − A/A − B) (efflux ratio) [2]: 120; MDCK permeability (MDR1-MDCK); Mean; Papp (A − B) [2]: 0.47 10^−6 cm/s; MDCK permeability (MDR1-MDCK); Mean; Papp (B − A) [2]: 56.2 10^−6 cm/s
Cn1cncc1-c1cccc(C2(C)C3=C(CC(C)(C)CC3=O)Nc3n[nH]c(CC(C)(C)C)c32)c1 (stereo not shown) [Compound 126014]	100 to 1000	100 to 1000	–	–	MDCK permeability (MDR1-MDCK); Mean; Papp Ratio (B − A/A − B) (efflux ratio) [2]: 187; MDCK permeability (MDR1-MDCK); Mean; Papp (A − B) [2]: 0.17 10^−6 cm/s; MDCK permeability (MDR1-MDCK); Mean; Papp (B − A) [2]: 32.1 10^−6 cm/s
C[S+]([O-])c1cccc(C2(C)C3=C(CC(C)(C)CC3=O)Nc3n[nH]c(CC(C)(C)C)c32)c1 (stereo not shown) [Compound 126190]	100 to 1000	1000 to 5000	–	–	MDCK permeability (MDR1-MDCK); Mean; Papp Ratio (B − A/A − B) (efflux ratio) [2]: 199; MDCK permeability (MDR1-MDCK); Mean; Papp (A − B) [2]: 0.08 10^−6 cm/s; MDCK permeability (MDR1-MDCK); Mean; Papp (B − A) [2]: 15.7 10^−6 cm/s
Cn1cc(-c2cccc(C3(C)C4=C(CC(C)(C)CC4=O)Nc4n[nH]c(CC(C)(C)C)c43)c2)cn1 (stereo not shown) [Compound 126393]	100 to 1000	1000 to 5000	–	–	MDCK permeability (MDR1-MDCK); Mean; Papp Ratio (B − A/A − B) (efflux ratio) [2]: 92.5; MDCK permeability (MDR1-MDCK); Mean; Papp (A − B) [2]: 0.59 10^−6 cm/s; MDCK permeability (MDR1-MDCK); Mean; Papp (B − A) [2]: 54.5 10^−6 cm/s
CC[C@@]1(c2ccccc2)C2=C(CC(C)(C)[C@H](F)C2=O)Nc2n[nH]cc21 [Compound 957405]	–	–	1000 to 5000	100 to 1000	–
CC[C@@]1(c2ccccc2)C2=C(CC(C)(C)[C@@H](F)C2=O)Nc2n[nH]cc21 [Compound 957406]	–	–	> 5000	> 5000	–
CC[C@@]1(c2cccc(C(F)(F)F)c2)C2=C(CC(C)(C)NC2=O)Nc2n[nH]c(F)c21 [Compound 957497]	–	–	–	–	IC50 [1, 8]: > 5000 nM; IC50 [3, 9]: > 5000 nM
CCC1(c2cccc(-c3cnn(C)c3)c2)C2=C(Nc3n[nH]cc31)C(F)C(C)(C)CC2=O (stereo not shown) [Compound 957504]	> 5000	–	1000 to 5000	100 to 1000	–
CC[C@@]1(c2cccc(-c3cnn(C)c3)c2)C2=C(Nc3n[nH]cc31)[C@H](F)C(C)(C)CC2=O [Compound 957505]	> 5000	1000 to 5000	1000 to 5000	≤ 100	–
CC[C@@]1(c2cccc(-c3ccnn3C)c2)C2=C(Nc3n[nH]cc31)[C@H](F)C(C)(C)CC2=O [Compound 957507]	1000 to 5000	≤ 100	≤ 100	≤ 100	–
CC[C@]1(c2cccc(-c3ccnn3C)c2)C2=C(Nc3n[nH]cc31)[C@H](F)C(C)(C)CC2=O [Compound 957508]	–	–	> 5000	> 5000	–
CCC1(c2cccc(-c3ccnn3C)c2)C2=C(Nc3n[nH]cc31)C(F)C(C)(C)CC2=O (stereo not shown) [Compound 957509]	–	–	> 5000	100 to 1000	–
CCC1(c2cccc(-c3cnn(C)c3)c2)C2=C(Nc3n[nH]cc31)C(F)C(C)(C)CC2=O (stereo not shown) [Compound 957510]	–	–	> 5000	1000 to 5000	–
CC[C@]1(c2cccc(C(F)(F)F)c2)C2=C(CC(C)(C)NC2=O)Nc2n[nH]c(F)c21 [Compound 957518]	–	–	–	–	IC50 [1, 8]: 100 to 1000 nM; IC50 [3, 9]: ≤ 100 nM
CCC1(c2cccc(-c3ccncc3)c2)C2=C(Nc3n[nH]cc31)C(F)C(C)(C)CC2=O (stereo not shown) [Compound 959341]	> 5000	1000 to 5000	100 to 1000	≤ 100	–
CCC1(c2cccc(-c3ccncc3)c2)C2=C(Nc3n[nH]cc31)C(F)C(C)(C)CC2=O (stereo not shown) [Compound 959342]	–	–	> 5000	1000 to 5000	–
CC[C@]1(c2cccc(-c3ccncc3)c2)C2=C(Nc3n[nH]cc31)[C@@H](F)C(C)(C)CC2=O [Compound 959344]	–	–	> 5000	> 5000	–
CCC1(c2cccc(-c3cncn3C(C)C)c2)C2=C(Nc3n[nH]cc31)C(F)C(C)(C)CC2=O (stereo not shown) [Compound 963155]	–	–	≤ 100	≤ 100	–
